Reference: US11344534B2, “Cholinergic agonism for the treatment of pancreatic cancer” (priority 2017, dated 2022)
“Also recorded” adds a separate entry of the source.

Experiments:
CHRM1 [1] = test: qRT-PCR of muscarinic receptor expression, human PDAC cell lines; format: cell-based; settings: human PDAC cell lines (MiaPaca2 and Panc1), compared to control
murine K8282 cells = test: Western blot of EGFR/MAPK and PI3K/AKT signaling, K8282; format: cell-based, mouse; settings: for phosphorylation of EGFR, BRAF, ERK1/2, PI3K and AKT kinases (western blot): 72 hours; for ratios of p-EGFR/EGFR, p-BRAF/BRAF, p-ERK/ERK, p-PI3K/PI3K and p-AKT/AKT (densitometry): single agent alone
Description: (§1) To analyze EGFR and the MAPK and PI3K-Akt pathway in human and murine pancreatic cancer cell lines, cells were grown in 12-well plate to around ˜70% confluent, changed the 0.5% FBS medium, added the drugs respectively and incubated them for further 72 hrs incubation in a typical CO2 incubator (˜20% O2). After removing the medium, cells were washed twice with PBS, and protein extraction was performed on ice using RIPA buffer with protease inhibitor (Complete) (Roche) cocktail and phosphatase inhibitor (phosSTOP) (Roche). Protein samples were subsequently separated in 10% Bis-Tris Gel NuPAGE® electrophoresis using MES SDS Running Buffer (Invitrogen, CA, USA). After transfer to nitrocellulose, membranes were blocked with 5% BSA, and samples were probed with the following primary antibodies: p-EGFR (Cell Signaling), EGFR (Cell Signaling), p-BRAF (Cell Signaling), BRAF (Cell Signaling), p-ERK1/2 (phosphorylated p44/42 MAPK) (Thr202/Tyr204) (Cell Signaling), ERK1/2 (p44/42 MAPK) (Thr202/Tyr204) (Cell Signaling), p-PI3K (Cell Signaling), PI3K (Cell Signaling), p-Akt (Cell Signaling), Akt (Cell Signaling), and β-actin (Cell Signaling) followed by horseradish peroxidase-coupled secondary antibody. Immunoreactive bands were visualized using 5-bromo-4-chloro-3-indolyl phosphate/nitro blue tetrazolium and bands were quantified with ImageJ.
(§2) To analyze EGFR, MAPK and PI3K-AKT pathways in human and murine pancreatic cancer cell lines, cells were grown in 12-well culture plates to ˜70% confluency. The medium was then changed to 0.5% FBS medium, the respective drugs were added, and they were incubated for an additional 72 hours in a CO2 incubator (˜5% CO2). After removing the medium, cells were washed twice with PBS, and protein extraction was performed on ice using RIPA buffer with protease inhibitor (Complete, Roche) cocktail and a phosphatase inhibitor (phosSTOP, Roche). Protein samples were subsequently separated by 10% Bis-Tris Gel NuPAGE® electrophoresis using MES SDS Running Buffer (Invitrogen, CA, USA). After transfer to nitrocellulose, membranes were blocked with 5% BSA, and samples were probed with the following primary antibodies: p-EGFR (Cell Signaling), EGFR (Cell Signaling), p-BRAF (Cell Signaling), BRAF (Cell Signaling), p-ERK1/2 (phosphorylated p44/42 MAPK) (Thr202/Tyr204) (Cell Signaling), ERK1/2 (p44/42 MAPK) (Thr202/Tyr204) (Cell Signaling), p-PI3K (Cell Signaling), PI3K (Cell Signaling), p-AKT (Cell Signaling), AKT (Cell Signaling), and β-actin (Cell Signaling) followed by horseradish peroxidase-coupled secondary antibody. Immunoreactive bands were visualized using 5-bromo-4-chloro-3-indolyl phosphate/nitro blue tetrazolium and bands were quantified with ImageJ.

human Panc1 cells = test: Western blot of EGFR/MAPK and PI3K/AKT signaling, Panc1; format: cell-based; settings: for phosphorylation of EGFR, BRAF, ERK1/2, PI3K and AKT kinases (western blot): 72 hours; for ratios of p-EGFR/EGFR, p-BRAF/BRAF, p-ERK/ERK, p-PI3K/PI3K and p-AKT/AKT (densitometry): single agent alone
Description: as §1, §2

[2] = tested on: Kras^+/LSL-G12D mutant spheres; test: 3D Matrigel sphere culture of Kras mutant (Ad-Cre) pancreatic acinar cells; format: cell-based, mouse; settings: for number of spheres / size of spheres: day 5, pilocarpine 1 mM, scopolamine 10 μM, McN-34A 50 μM, pirenzepine 50 μM, vs controls; for sphere formation and growth of Kras mutant spheres: oncogenic K-Ras allele activated by adeno-Cre virus
Description: Cholinergic stimulation could in theory promote cancer indirectly through effects on stromal cells, or directly through effects on pancreatic epithelial cells. To determine whether cholinergic stimulation promoted tumor development in part through muscarinic receptors on cancer cells, the sphere forming capacity of K-Ras^+/LSL-G12D mutant pancreatic acinar cells was assessed in a 3D Matrigel culture system, with or without muscarinic stimulation. K-Ras^+/LSL-G12D mutant spheres were generated from K-Ras^+/LSL-G12D pancreatic acinar cells by treatment with adenoviral delivered Cre (Ad-Cre).
3D cultures were performed as described previously (Wescott et al., 2009). Organoids were cultured for 5 days before analysis. Adenoviral delivered Cre (Ad-Cre) was added to the cultures and medium was changed after 12 hours. […] Sphere size and […] were analyzed using ImageJ software.
To determine whether cholinergic stimulation suppresses tumor development in part through specific muscarinic receptors on cancer cells, the sphere forming capacity of Kras^+/LSL-G12D pancreatic acinar cells in a 3D Matrigel culture system in the absence and presence of muscarinic agonists and antagonists was assessed. Kras^+/LSL-G12D mutant spheres were generated from Kras^+/LSL-G12D mice by delivery of an adenoviral Cre (Ad-Cre).
3D cultures were performed as described previously^18. Organoids were cultured for 5 days before analysis. Adenoviral delivered Cre (Ad-Cre) was added to the cultures and medium was changed after 12 hours. […] Sphere size and number were analyzed using ImageJ software.

[3] = tested on: murine PDAC cell lines (Panc02, K8282); test: MTT assay, murine PDAC cell lines; format: cell-based, mouse; settings: for proliferation (MTT assay): 72 hours, 0.5% FBS medium
Description: (§3) Cell proliferation in each cell line was assessed with a 3-(4,5-dimethylthiazol-2yl)-2,5-diphenyltetrazolium bromide (MTT) assay kit (Sigma) in accordance with the manufacturer's instructions. 3×10^3 cells were grown in 96-well plate to around ˜70% confluent, changed the 0.5% FBS medium, added the drugs respectively and incubated them for further 72 hrs incubation in a typical CO2 incubator (˜20% O2). Treated cells were rinsed twice with PBS, incubated in 10 ll MTT solution for 4 hr at 37° C., and 100 uL DMSO was added to each well. The absorbance of each well was measured at 570 nm using Tilter-Tech 96-well multiscanner (Becton Dickinson, Heidelberg, Germany). The relative number of viable cells compared with the number of cells without drug treatment was expressed as percent cell viability using the following formula:
(§4) Cell proliferation in each cell line was assessed with a 3-(4,5-dimethylthiazol-2yl)-2,5-diphenyltetrazolium bromide (MTT) assay kit (Sigma) in accordance with the manufacturer's instructions. 3×10^3 cells were grown in 96-well plate to ˜70% confluency, the media was changed to 0.5% FBS medium, the respective drugs were added, and they were incubated for an additional 72 hours in a CO2 incubator (˜5% CO2). Treated cells were rinsed twice with PBS, incubated in 10 ul MTT (5 mg/ml PBS) solution for 4 hours at 37° C., and 100 uL DMSO was then added to each well. The absorbance of each well was measured at 570 nm using a Tilter-Tech 96-well multiscanner (Becton Dickinson, Heidelberg, Germany). The relative number of viable cells compared with the number of cells without drug treatment was expressed as percent cell viability using the following formula: cell viability (%)=A570 of treated cells/A570 of untreated cells.

Chrm1 [4] = test: qRT-PCR of muscarinic receptor expression, murine PDAC cell lines; format: cell-based, mouse; settings: murine PDAC cell lines (Panc02 and K8282), compared to control
[5] = tested on: human PDAC cell lines (MiaPaca2, Panc1); test: MTT assay, human PDAC cell lines; format: cell-based; settings: for proliferation (MTT assay): 72 hours, 0.5% FBS medium
Description: as §3, §4

[6] = tested on: Organoid cultures derived from LSL-K-Ras^G12D pancreata not treated by an Adeno-Cre virus; format: cell-based; settings: no Adeno-Cre virus (Kras not activated)
KPC mice = KPC mice with established PDAC treated with gemcitabine with or without bethanechol; format: in vivo, mouse; settings: KPC mice
Description: Next, the role of cholinergic signaling in advanced pancreatic cancer was investigated using the genetically engineered KPC (K-Ras^+/LSL-G12D;p53^+/R172H;Pdx-1-Cre) mouse model, which develops ductal adenocarcinoma by 17-19 weeks (Olive et al., 2009, Hingorani et al., 2005).
K-Ras^+/LSL-G12D, p53^+/R172H, and Pdx-1-Cre mice were provided by Dr. Kenneth Olive (Columbia University). M1RKO mice were purchased from the Jackson Laboratory. KC mice and KPC mice were crossed with M1RKO mice. For several experiments, KC mice received pyloroplasty with or without vagotomy at 8 weeks and KC+VxPP mice were treated with or without bethanechol (400 μg/ml) after surgery immediately. They were sacrificed at 20 weeks. In addition, KPC mice were treated with gemcitabine biweekly and with or without bethanechol when the tumor size of 3-5 mm detected using ultrasound. They were sacrificed when the mice were moribund. For liver metastatic experiments, WT type C57/B6 mice received spleen injection and hemi-splenectomy. […] They were sacrificed when the mice were moribund.
Next, the role of cholinergic signaling in established PDAC was investigated using the KPC mouse model, which develops PDAC at a median age of 17-19 weeks^2, 29. KPC mice with pancreatic tumors that measured 3-5 mm in diameter on ultrasound were randomized to treatment with gemcitabine (GEM) alone, or GEM+bethanechol (FIG. 8I).
LSL-Kras^+/LSL-G12D, LSL-Trp53^+/R172H, and Pdx1-Cre mice were bred by Dr. Kenneth P. Olive and co-workers. Chrm1KO mice (C57BL/6-Chrm1tm1 Stl/J, (M1RKO) mice^1 were purchased from the Jackson Laboratory. KC mice and KPC mice were crossed with M1RKO mice. In the vagotomy experiments, KC mice received pyloroplasty with or without vagotomy at 8 weeks, and some KC+VxPP mice were treated with bethanechol ([…] in drinking water) immediately after surgery and then sacrificed at 20 weeks. KPC mice in treatment studies were palpated weekly for tumors in the pancreas. Once a tumor was suspected, KPC mice were screened by VEVO 2100—Ultrasound Imaging System (FUJIFILM VisualSonics) for pancreatic cancer. KPC mice were treated with gemcitabine, given by i.p. injection 100 mg/kg biweekly, with or without bethanechol, when a tumor size of 3-5 mm was detected using ultrasound. Mice were sacrificed when the mice were moribund. NOD/SCID mice were implanted with Panc1 cells subcutaneously and sacrificed at 30 days after implantation. For liver metastatic experiments, WT type C57/B6 mice received a splenic injection of labeled Panc02 cells, followed by hemi-splenectomy. The mice were then divided into three groups. […] Mice were then sacrificed when moribund. At necropsy, hepatic metastases that could clearly be identified as tumor nodules on gross inspection were separated. All animal studies and procedures were approved by the IACUC committee at Columbia University. All mice were bred under specific pathogen free conditions. Comparisons were made with age- and sex-matched control animals.
CD44, p-EGFR, p-PI3K, p-ERK, and Ki67 positive cells were quantified in at least five high power fields from at least 3 mice per group. Total cells per field were counted via morphometric analysis using ImageJ and the ratio of positive cells to total cell number calculated.

SMILES | Chrm1 expression (CHRM1 [1]) | phosphorylation of EGFR, BRAF, ERK1/2, PI3K and AKT kinases (western blot) (murine K8282 cells) | phosphorylation of EGFR, BRAF, ERK1/2, PI3K and AKT kinases (western blot) (human Panc1 cells) | number of spheres [2] | size of spheres [2] | sphere formation and growth of Kras mutant spheres [2] | proliferation (MTT assay) [3] | Chrm1 expression (Chrm1 [4]) | proliferation (MTT assay) [5] | ratios of p-EGFR/EGFR, p-BRAF/BRAF, p-ERK/ERK, p-PI3K/PI3K and p-AKT/AKT (densitometry) (murine K8282 cells) | ratios of p-EGFR/EGFR, p-BRAF/BRAF, p-ERK/ERK, p-PI3K/PI3K and p-AKT/AKT (densitometry) (human Panc1 cells) | increase in proliferation due to muscarinic antagonists ([3]; agonist added to antagonist) | increase in proliferation due to muscarinic antagonists ([5]; agonist added to antagonist) | sphere forming capacity / growth of WT spheres [6] | overall survival (KPC mice; GEM with or without bethanechol) [days] | overall survival (KPC mice; tumors 3-5 mm at enrollment, GEM biweekly i.p. with or without bethanechol) [days]
CN1[C@@H]2C[C@@H](OC(=O)[C@H](CO)c3ccccc3)C[C@H]1[C@@H]1O[C@@H]12 [scopolamine] | increased; also recorded: higher | significantly more phosphorylated | significantly more phosphorylated | significantly more; also recorded: increased | larger | increase | increased | increased; also recorded: higher | increased; also recorded: stimulated | – | – | – | – | – | – | –
C[N+](C)(C)CC#CCOC(=O)Nc1cccc(Cl)c1.[Cl-] [McN-34A] | – | significantly less phosphorylated | significantly less phosphorylated | significantly fewer | smaller | suppressed | suppressed | – | suppressed | significantly decreased | significantly decreased | blocked; also recorded: inhibited to some extent | blocked; also recorded: inhibited to some extent | increased | – | –
CN1CCN(CC(=O)N2c3ccccc3C(=O)Nc3cccnc32)CC1 [pirenzepine] | – | significantly more phosphorylated | significantly more phosphorylated | significantly more | larger | stimulated | increased; also recorded: stimulated | – | increased; also recorded: stimulated | increased | increased | – | – | significantly prevents | – | –
Nc1ccn([C@@H]2O[C@H](CO)[C@@H](O)C2(F)F)c(=O)n1 [GEM] | – | – | – | – | – | – | – | – | – | – | – | – | – | – | 29 | 29
